Data as given in patent publication US20230279020A9, “CARM1 INHIBITORS AND USES THEREOF” (Epizyme, Inc., priority 2013, published 2023).

biological target: Human CARM1 (PRMT4) (Homo sapiens (Human), UniProt Q86X55); assay: CARM1 enzyme assay on peptide substrate (3H-SAM Flashplate); conditions: Biochemical potencies, classification codes; read-out: Biochem IC50
Sequence (Q86X55 other isoform, or with tags, fused parts or gaps isoform Q86X55-1): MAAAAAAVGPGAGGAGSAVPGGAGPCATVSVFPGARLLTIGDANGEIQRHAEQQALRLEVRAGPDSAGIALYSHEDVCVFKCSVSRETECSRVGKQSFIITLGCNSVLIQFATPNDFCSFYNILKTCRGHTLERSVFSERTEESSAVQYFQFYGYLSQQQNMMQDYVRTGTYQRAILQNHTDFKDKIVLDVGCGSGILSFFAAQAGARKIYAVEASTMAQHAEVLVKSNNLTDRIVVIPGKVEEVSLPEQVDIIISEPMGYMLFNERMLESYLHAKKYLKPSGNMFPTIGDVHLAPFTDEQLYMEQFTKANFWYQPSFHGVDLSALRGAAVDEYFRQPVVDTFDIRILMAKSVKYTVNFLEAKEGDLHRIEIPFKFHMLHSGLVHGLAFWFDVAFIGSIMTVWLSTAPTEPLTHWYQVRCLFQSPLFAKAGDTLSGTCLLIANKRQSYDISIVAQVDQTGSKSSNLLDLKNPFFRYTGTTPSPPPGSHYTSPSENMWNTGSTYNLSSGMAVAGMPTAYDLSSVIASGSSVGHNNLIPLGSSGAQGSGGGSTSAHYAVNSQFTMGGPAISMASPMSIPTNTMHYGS

IC50 | Compound
< 100 nM | CNCC(O)COc1cccc(-c2nc(N[C@@H]3CCOC3)c(C)c(N3CCn4ccnc4C3)n2)c1 (stereo partly shown) [Example 359-1a]
< 100 nM | CNCC(O)COc1cccc(-c2nc(N[C@@H]3CCOC3)c(C)c(N3CCNCC3)n2)c1 (stereo partly shown) [Example 422-1a]
< 100 nM | CNCC(O)COc1cccc(-c2nc(N[C@@H]3CCOC3)c(C)c(N3CCC4(CC3)CNC(=O)C4)n2)c1 (stereo partly shown) [Example 424-1a]
< 100 nM | CNCC(O)COc1cccc(-c2nc(N[C@@H]3CCOC3)c(C)c(N3CCS(=O)(=O)CC3)n2)c1 (stereo partly shown) [Example 425-1a]
< 100 nM | CNCC(O)COc1cccc(-c2nc(N[C@@H]3CCOC3)c(C)c(N3CCN(C)C(=O)C3)n2)c1 (stereo partly shown) [Example 435-1a]
< 100 nM | CNCC(O)COc1cccc(-c2nc(N[C@@H]3CCOC3)c(C)c(N3CC[C@@H](O)C3)n2)c1 (stereo partly shown) [Example 437-1a]
< 100 nM | CNCC(O)COc1cccc(-c2nc(N[C@@H]3CCOC3)c(C)c(N3C[C@H]4CNC[C@H]4C3)n2)c1 (stereo partly shown) [Example 440-1a]
< 100 nM | CNCC(O)COc1cccc(-c2nc(N[C@@H]3CCOC3)c(C)c(N3CCC(S(C)(=O)=O)CC3)n2)c1 (stereo partly shown) [Example 441-1a]
< 100 nM | CNCC(O)COc1cccc(-c2nc(NC3CCOC3)c(C)c(N3CC(N)CC(Cl)C3)n2)c1 (stereo not shown) [Example 442-1a]
< 100 nM | CNCC(O)COc1cccc(-c2nc(N[C@@H]3CCOC3)c(C)c(N3C[C@H]4C[C@@H]3CN4C)n2)c1 (stereo partly shown) [Example 443-1a]
< 100 nM | CNCC(O)COc1cccc(-c2nc(NC3CCOC3)c(C)c(N3CCN(C(=O)OC)C(C)(C)C3)n2)c1 (stereo not shown) [Example 447-1a]
< 100 nM | CCS(=O)(=O)N1CCN(c2nc(-c3cccc(OCC(O)CNC)c3)nc(NC3CCOC3)c2C)CC1(C)C (stereo not shown) [Example 448-1a]
< 100 nM | CNCC(O)COc1cccc(-c2nc(N[C@@H]3CCOC3)c(C)c(N3CCN(CC(F)F)CC3)n2)c1 (stereo partly shown) [Example 458-1a]
< 100 nM | CNCC(O)COc1cccc(-c2nc(N[C@@H]3CCOC3)c(C)c(N3CCC(c4cccnc4)C3)n2)c1 (stereo partly shown) [Example 461-1a]
< 100 nM | CCOC(=O)N1CCN(c2nc(-c3cccc(OCC(O)CNC)c3)nc(N[C@@H]3CCOC3)c2C)C[C@H]1C (stereo partly shown) [Example 470-1a]
< 100 nM | CNCC(O)COc1cccc(-c2nc(N[C@@H]3CCOC3)c(C)c(N3CCN(CC(F)F)[C@H](C)C3)n2)c1 (stereo partly shown) [Example 471-1a]
< 100 nM | CNCC(O)COc1cccc(-c2nc(-c3cn(C)c4ncncc34)cc(N(C)C3CCOCC3)n2)c1 (stereo not shown) [Example 485-1a]
< 100 nM | CNC[C@H](O)COc1cccc(-c2nc(-c3cnc4cnccn34)cc(N(C)C3CCOCC3)n2)c1 [Example 486-1a]
< 100 nM | CNCC(O)COc1cccc(-c2nc(N(C)c3cncnc3)cc(N(C)C3CCOCC3)n2)c1 (stereo not shown) [Example 487-1a]
< 100 nM | CNCC(O)COc1cccc(-c2nc(-c3cnc4ncccn34)cc(N(C)C3CCOCC3)n2)c1 (stereo not shown) [Example 489-1a]
< 100 nM | CNCC(O)COc1cccc(-c2nc(-c3ncc(C)n3C)cc(N(C)C3CCOCC3)n2)c1 (stereo not shown) [Example 491-1a]
< 100 nM | CNCC(O)COc1cc(OC)cc(-c2nc(-c3cnc4cnccn34)cc(N(C)C3CCOCC3)n2)c1 (stereo not shown) [Example 492-1a]

Continued, compound first:

Compound | IC50
CNCC(O)COc1cccc(-c2nc(N[C@H]3CCOC3)c(C)c(N3CCC(O)CC3)n2)c1 (stereo partly shown) [Example 362-1a] | < 100 nM
CNCC(O)COc1cccc(-c2nc(N[C@H]3CCOC3)c(C)c(C(=O)N(C)CC3CCOCC3)n2)c1 (stereo partly shown) [Example 363-1a] | 100 to 1000 nM
CNCC(O)COc1cccc(-c2nc(NCCCCl)c(C)c(N[C@@H]3CCOC3)n2)c1 (stereo partly shown) [Example 366-1a] | < 100 nM
CNCC(O)COc1cccc(-c2nc(N[C@@H]3CCOC3)c(C)c(N3CCC(N4CCOCC4)CC3)n2)c1 (stereo partly shown) [Example 367-1a] | < 100 nM
CNCC(O)COc1cccc(-c2nc(N[C@@H]3CCOC3)c(C)c(N3CC[C@H](N(C)C)C3)n2)c1 (stereo partly shown) [Example 368-1a] | < 100 nM
CNCC(O)COc1cccc(-c2nc(N[C@@H]3CCOC3)c(C)c(N3CC[C@@H](OC)C3)n2)c1 (stereo partly shown) [Example 369-1a] | < 100 nM
CNCC(O)COc1cccc(-c2nc(N[C@@H]3CCOC3)c(C)c(N3CCC(OC)CC3)n2)c1 (stereo partly shown) [Example 370-1a] | < 100 nM
CNCC(O)COc1cccc(-c2nc(N[C@@H]3CCOC3)c(Cl)c(N3CCOCC3)n2)c1 (stereo partly shown) [Example 376-1a] | < 100 nM
CNCC(O)COc1cccc(-c2nc(N[C@@H]3CCOC3)c(C)c(N3CCC3)n2)c1 (stereo partly shown) [Example 377-1a] | < 100 nM
CNCC(O)COc1cccc(-c2nc(N[C@@H]3CCOC3)c(C)c(N(C)C3CCN(C)CC3)n2)c1 (stereo partly shown) [Example 379-1a] | < 100 nM
CNCC(O)COc1cccc(-c2nc(N[C@H]3CCOC3)c(C)c(-n3nc(C)cc3C)n2)c1 (stereo partly shown) [Example 381-1a] | < 100 nM
CNCC(O)COc1cccc(-c2nc(N[C@@H]3CCOC3)c(C)c(-n3nc(C)cc3C)n2)c1 (stereo partly shown) [Example 382-1a] | < 100 nM
CNCC(O)COc1cccc(-c2nc(N[C@@H]3CCOC3)c(C)c(N3CCN(CC(=O)N(C)C)CC3)n2)c1 (stereo partly shown) [Example 391-1a] | < 100 nM
CNCC(O)COc1cccc(-c2nc(N[C@@H]3CCOC3)c(C)c(N3CC[C@@H](N(C)C)C3)n2)c1 (stereo partly shown) [Example 392-1a] | < 100 nM
CNCC(O)COc1cccc(-c2nc(N[C@@H]3CCOC3)c(C)c(N3Cc4cccnc4C3)n2)c1 (stereo partly shown) [Example 394-1a] | < 100 nM
CNCC(O)COc1cccc(-c2nc(N[C@@H]3CCOC3)c(C)c(N3CCN(C(C)=O)[C@@H](C)C3)n2)c1 (stereo partly shown) [Example 396-1a] | < 100 nM
CNCC(O)COc1cccc(-c2nc(NC3CCOC3)c(C)c(C(=O)NC3CCN(C)CC3)n2)c1 (stereo not shown) [Example 397-1a] | < 100 nM
CNCC(O)COc1cccc(-c2nc(NC3CCOC3)c(C)c(N3CC4(CCNCC4)c4ccccc43)n2)c1 (stereo not shown) [Example 398-1a] | < 100 nM
CNCC(O)COc1cccc(-c2nc(N[C@@H]3CCOC3)c(C)c(-c3ccc(OC)nc3)n2)c1 (stereo partly shown) [Example 408-1a] | < 100 nM
CNCC(O)COc1cccc(-c2nc(N[C@@H]3CCOC3)c(C)c(N3CC4CCC(C3)O4)n2)c1 (stereo partly shown) [Example 412-1a] | < 100 nM
CNCC(O)COc1cccc(-c2nc(N[C@@H]3CCOC3)c(C)c(C3=CC(C)(C)NC(C)(C)C3)n2)c1 (stereo partly shown) [Example 415-1a] | < 100 nM
CNCC(O)COc1cccc(-c2nc(NC3CCOC3)c(C)c(N3CCN(C(C)=O)C[C@H]3C)n2)c1 (stereo partly shown) [Example 421-1a] | < 100 nM
CNCC(O)COc1cccc(-c2nc(N[C@@H]3CCOC3)c(C)c(N3Cc4ccncc4C3)n2)c1 (stereo partly shown) [Example 427-1a] | < 100 nM
CNCC(O)COc1cccc(-c2nc(N[C@@H]3CCOC3)c(C)c(N3CCC4(CCNCC4)CC3)n2)c1 (stereo partly shown) [Example 429-1a] | < 100 nM

Compound | IC50
CNCC(O)COc1cccc(-c2nc(N[C@@H]3CCOC3)c(C)c(N3CCN(S(C)(=O)=O)CC3)n2)c1 (stereo partly shown) [Example 434-1a] | < 100 nM
CNCC(O)COc1cccc(-c2nc(N[C@@H]3CCOC3)c(C)c(N3CCN(C4CC4)CC3)n2)c1 (stereo partly shown) [Example 436-1a] | < 100 nM
CNCC(O)COc1cccc(-c2nc(N[C@@H]3CCOC3)c(C)c(N3CCN(C(C)=O)C(C)(C)C3)n2)c1 (stereo partly shown) [Example 439-1a] | < 100 nM
CNCC(O)COc1cccc(-c2nc(NC3CCOC3)c(C)c(N3CCN(CCF)CC3)n2)c1 (stereo not shown) [Example 446-1a] | < 100 nM
CNCC(O)COc1cccc(-c2nc(NC3CCOC3)c(C)c(N3CCN(CC(F)(F)F)CC3)n2)c1 (stereo not shown) [Example 449-1a] | < 100 nM
CNCC(O)COc1cccc(-c2nc(NC3CCOC3)c(C)c(N3CC4CC(C3)N4)n2)c1 (stereo not shown) [Example 452-1a] | < 100 nM
CNCC(O)COc1cccc(-c2nc(NC3CCOC3)c(C)c(N3CCN4C(=O)OC[C@@H]4C3)n2)c1 (stereo partly shown) [Example 454-1a] | < 100 nM
CNCC(O)COc1cccc(-c2nc(NC3CCOC3)c(C)c(N3CCN(C)C(C)(C)C3)n2)c1 (stereo not shown) [Example 455-1a] | < 100 nM
CCOC(=O)N1CCN(c2nc(-c3cccc(OCC(O)CNC)c3)nc(N[C@@H]3CCOC3)c2C)CC1 (stereo partly shown) [Example 456-1a] | < 100 nM
CNCC(O)COc1cccc(-c2nc(NC3CCOC3)c(C)c(N3CCN(CC(F)F)C(C)(C)C3)n2)c1 (stereo not shown) [Example 457-1a] | < 100 nM
CNCC(O)COc1cccc(-c2nc(N[C@@H]3CCOC3)c(C)c(N3CCC4(CCOCC4)C3)n2)c1 (stereo partly shown) [Example 462-1a] | < 100 nM
CNCC(O)COc1cccc(-c2nc(N[C@@H]3CCOC3)c(C)c(N3CCN(C)[C@H](C)C3)n2)c1 (stereo partly shown) [Example 463-1a] | < 100 nM
CCS(=O)(=O)N1CCN(c2nc(-c3cccc(OCC(O)CNC)c3)nc(N[C@@H]3CCOC3)c2C)CC1 (stereo partly shown) [Example 464-1a] | < 100 nM
CNCC(O)COc1cccc(-c2nc(N[C@@H]3CCOC3)c(C)c(N3Cc4nc(C)sc4C3)n2)c1 (stereo partly shown) [Example 465-1a] | < 100 nM
CNCC(O)COc1cccc(-c2nc(N[C@@H]3CCOC3)c(C)c(N3CCN(C4CC4)[C@H](C)C3)n2)c1 (stereo partly shown) [Example 466-1a] | < 100 nM
CNCC(O)COc1cccc(-c2nc(N[C@@H]3CCOC3)c(C)c(N3CC[C@@H](c4cccnc4)C3)n2)c1 (stereo partly shown) [Example 467-1a] | < 100 nM
CNCC(O)COc1cccc(-c2nc(N[C@@H]3CCOC3)c(C)c(N3CCC(n4nc(C)cc4C)C3)n2)c1 (stereo partly shown) [Example 468-1a] | < 100 nM
CNCC(O)COc1cccc(-c2nc(N[C@@H]3CCOC3)c(C)c(N3CCCC4(CN(CC(F)F)C4)C3)n2)c1 (stereo partly shown) [Example 469-1a] | < 100 nM
CNCC(O)COc1cccc(-c2nc(N[C@@H]3CCOC3)c(C)c(N3CCC4(CN(CC(F)F)C4)C3)n2)c1 (stereo partly shown) [Example 475-1a] | < 100 nM
CNCC(O)COc1cccc(-c2nc(-c3cnc4c(C(=O)OC)cnn4c3)cc(N(C)C3CCOCC3)n2)c1 (stereo not shown) [Example 482-1a] | < 100 nM
CNCC(O)COc1cccc(-c2nc(-c3cn(S(C)(=O)=O)c4ncncc34)cc(N(C)C3CCOCC3)n2)c1 (stereo not shown) [Example 483-1a] | < 100 nM
CNC[C@@H](O)COc1cccc(-c2nc(-c3cn(S(C)(=O)=O)c4ncncc34)c(C)c(N(C)C3CCOCC3)n2)c1 [Example 488-1a] | < 100 nM
CNCC(O)COc1cccc(-c2nc(-c3cnc4cnccn34)cc(N(C)C3CCOCC3)n2)c1 (stereo not shown) [Example 490-1a] | < 100 nM
CNCC(O)COc1cccc(-c2nc(-c3csnc3C)cc(N(C)C3CCOCC3)n2)c1 (stereo not shown) [Example 493-1a] | < 100 nM
